Marks after values point to notes of the source that are not given here.
Assays:
Type in all cases: in vivo, rat
[1] = tested on: male Wistar rats; test: Pair-test of sexual behavior, copulatory activity reduced by Synestrol
Description: Reduction of copulatory activity caused by androgen deficiency was simulated by administration of Synestrol to male rats.
The model is based on the antagonism of androgenic and estrogenic hormones. The administration of Synestrol to male rats leads to the suppression of the sexual activity in animals.
Experiments were performed on 36 male Wistar rats (3 months of age). For 30 days after the beginning of the experiment, all male rats (except for the intact group (background)) were intramuscularly injected with Synestrol at a dose of 50 U/kg/day. Further, from Day 31 to Day 45 of the experiment, animals of the experimental groups, in addition to Synestrol, were intraperitoneally administered Treamid at a dose of 1.5 mg/kg and reference preparation Tribestan at a dose of 70 mg/kg. The sexual activity was estimated by the pair-test of sexual behavior. For this purpose, female rats in the estrus stage caused by a preliminary 4-fold injection of Synestrol were involved in the experiment. The effectiveness of Treamid was estimated by the following indices: latency until the first mating attempt (LFM), the number of mating attempts (mounts), and the number of ejaculations. The obtained data were compared with those of the same animals before the experiment (the first test) and with the data in the control group (the second test).

[2] = tested on: male rats; conditions: Day 65
Description: The latter was simulated by a single injection of cytostatic drug Paclitaxel (Mitotax, Dr. Reddy's, India) to male rats (3 months of age). The choice of the drug was due to the fact that it is one of the medications that damage the precursors of spermatogenesis—stem cells.
Paclitaxel was administered to the animals of the control and test groups once intravenously at the maximum tolerated dose of 7.6 mg/kg. Treamid was administered to the animals of the experimental groups intragastrically at a dose of 5 mg/kg in the form of a suspension in 2% starch mucus for 15 days a month after the administration of Paclitaxel. The control animals received an equivalent volume of the solvent (2% starch mucus), instead of the test compound.
The colony-stimulating activity of the cells of the microenvironment of spermatogenic tissue (production of humoral regulators of spermatogenesis by Sertoli cells) was determined as follows. The above-described procedure was used to prepare a testis homogenate from which an adherent fraction of cells was isolated. The adherent cells were cultured for 24 hours in complete culture medium at 37° C., 5% CO2 and 100% air humidity. A day later, the supernatant was collected, which was stored at a temperature of […]. The level of humoral factors of spermatogenesis in the supernatant was tested by the test system of CFU-Sp of the testes of intact rats. […]

[3] = tested on: Wistar rats; test: Pair-test of sexual behavior, rats of late reproductive (14 months) and presenile (19 months) age; conditions: for EN (the number of ejaculations) / LFM (latency until the first mount) / MN (the number of mounts): 14-month rats
Description: Erectile dysfunction was simulated by using animals of late and senile reproductive age (14-19 months). Suppression of sexual motivation was simulated by using animals of late reproductive age (14 months).
Experiments on studying the effect of Treamid on copulatory activity were carried out on 76 Wistar rats (14 months and 19 months of age). Treamid was administered intragastrically for 14 days at a dose of 5 mg/kg. Reference drug Sildenafil (100 mg, PFIZER PGM, France) was also administered intragastrically, which corresponded to clinical use, at a dose of 3 mg/kg twice a week. The sexual activity was estimated by the pair-test of sexual behavior. For this purpose female rats in the estrus stage caused by a preliminary 4-fold injection of the Synestrel were involved in the experiment. The effectiveness of Treamid was estimated by the following indices: latency until the first mating attempt (LFM), the number of mating attempts (MN), and the number of ejaculations (EN). The obtained data were compared with those of the same animals before the administration of Treamid (the first test) and with the data in the control group (the second test).

[4] = tested on: male Wistar rats; test: Chronic abacterial prostatitis (CAP) model, prostate weight and morphometry
Description: This is manifested in a decrease in the severity of the morphological changes typical in these diseases. CAP was simulated by suturing the ventral lobe of the gland with a silk thread, and BPH was simulated by the administration of Sulpiride. The reference drug was Prostamol Uno.
Treamid were administered intragastrically to animals with CAP at a dose of 0.5 mg/kg for 15 days.
Experiments were performed on 40 male Wistar rats (3 months of age). To simulate chronic abacterial prostatitis, the ventral lobe of the prostate was sutured with a silk thread (under anesthesia). The model of benign prostatic hyperplasia (BPH) was simulated in rats by inducing hyperprolactinaemia, for which male rats were intraperitoneally injected with Sulpiride at a dose of 40 mg/kg every day for 2 months (Eglonil, Sanofi Winthrop Industry, France).
One month after the surgery, the animals of the experimental group were intraperitoneally administered Treamid at a dose of 0.5 mg/kg once daily for 15 days. At the end of the administration course, the animals were weighed and euthanized in a CO2 chamber. The ventral lobe of the gland was then dissected, weighed, and its volume was measured, followed by the calculation of a weight coefficient, and subjected to morphological analysis. For this purpose, the prostate was fixed in formalin and poured into paraffin. Paraffin sections of a thickness of 5 μm were stained with hematoxylin-eosin according to Van Gieson on the connective tissue, to calculate the relative area of the epithelium. Further, the severity of atrophic processes and developing sclerosis was qualitatively assessed. The assessment was carried out on standard area of the gland section by using a computer graphic analysis (micrographs of 10 serial visual fields performed by an AxioCam Erc5s camera mounted on an AxioLab A1 microscope (×10 lens, ×10 eyepiece), with an image transfer software of “AxioVision LE”, Carl Zeiss). The area occupied by secretory sites, collagen fibers of connective tissue septa was determined. The effectiveness of the drug was estimated by the following criteria: lower intensity of morphological symptoms of chronic abacterial prostatitis (atrophy and sclerosis): the area occupied by secretory sections, collagen fibers of connective tissue septa.

[5] = First test, Synestrol-treated rats
[6] = Second test, Treamid 1.5 mg/kg or Tribestan 70 mg/kg intraperitoneally Day 31-45
[7] = First test, before administration of drugs
[8] = Second test, after 14-day administration course, Treamid 5 mg/kg, Sildenafil 3 mg/kg
[9] = 19-month rats, First test (before administration of drugs)
[10] = 19-month rats, Second test (after 14-day administration course), Treamid 5.0 mg/kg
[11] = Treamid 0.5 mg/kg 15 days, Prostamol Uno 50 mg/kg
[12] = anterior part of the prostate gland, Treamid 0.5 mg/kg, Prostamol Uno 50 mg/kg

## O=C(CCCC(=O)NCCc1ncc[nH]1)NCCc1ncc[nH]1 [Treamid]
[1]; [5]
  Ejaculating animals, %: 0.00%#
  LFM: 373.89 ± 112.89 s
  The number of mounts, abs.: 5.89 ± 1.91 abs.
[1]; [6]
  LFM: 381.22 ± 115.18 s
  The number of mounts, abs.: 8.00 ± 3.12 abs.
[2]
  increase of the secretory activity of the microenvironment cells compared to the control: 80%
[3]; [7]
  EN (the number of ejaculations): 0.00 ± 0.00
  LFM (latency until the first mount): 559.08 ± 93.55
  MN (the number of mounts): 1.42 ± 0.50
[3]; [8]
  EN (the number of ejaculations): 0.60 ± 0.22⋄*
  MN (the number of mounts): 6.90 ± 1.88⋄
[3]; Second test, after 14-day administration course, Treamid 5 mg/kg, Sildenafil 3 mg/kg intragastrically
  LFM (latency until the first mount): 364.80 ± 127.66
[3]; [9]
  EN (abs.): 0.00 ± 0.00 abs.
  LFM: 310.27 ± 94.59 s
  MN (abs.): 4.27 ± 1.04 abs.
[3]; [10]
  EN: 0.20 ± 0.13⋄*
  LFM: 297.20 ± 117.04 s
  MN (abs.): 7.90 ± 1.45⋄ abs.
[4]; Treamid 0.5 mg/kg
  increase in the area of the acinar epithelium: 22%
[4]; [11]
  Volume of the anterior lobe of the prostate gland, cm^3: 0.90 ± 0.20 cm^3
  Weight coefficient of the anterior lobe of the prostate gland: 1.97 ± 0.47 mg/g
  Weight of the anterior lobe of the prostate gland: 976.00 ± 226.62 mg
[4]; [12]
  Area of collagen fibers: 2.64 ± 0.12 %
  Area of the acinar epithelium: 26.33 ± 2.63%

Source: patent US10076511B2, “Bisamide derivative of dicarboxylic acid as an agent for stimulating tissue regeneration and recovery of diminished tissue function” (TREAMID GmbH, priority 2015, dated 2018)
